In PMC12281475, “Mediator Kinase Inhibitor Selectivity and Activity in Colorectal Cancer” (ACS Chemical Biology, 2025):

Tests used:
Format in all cases: biochemical
[1] = target: T1, CDK1_CycA2 (Homo sapiens, UniProt P06493); assay: Radiometric protein kinase assay (33PanQinase), CDK1_CycA2; details: for Hill Slope: slope of the IC50 fit
T1 construct: purchased Reaction Biology

[2] = target: T2, CDK1_CycB1 (Homo sapiens, UniProt P06493); assay: Radiometric protein kinase assay (33PanQinase), CDK1_CycB1; details: for Hill Slope: slope of the IC50 fit
T2 construct: purchased Reaction Biology

[3] = target: T3, CDK1_CycE1 (Homo sapiens, UniProt P06493); assay: Radiometric protein kinase assay (33PanQinase), CDK1_CycE1; details: for IC50: highest assay concentration 1.00E-05 M, read-out: IC50; for Hill Slope: slope of the IC50 fit
T3 construct: purchased Reaction Biology

[4] = target: CDK10_CycQ (Homo sapiens, UniProt Q15131); assay: Radiometric protein kinase assay (33PanQinase), CDK10_CycQ; details: for Hill Slope: slope of the IC50 fit
[5] = target: CDK11B 357-795_CycK (Homo sapiens, UniProt P21127); assay: Radiometric protein kinase assay (33PanQinase), CDK11B 357-795_CycK; details: for Hill Slope: slope of the IC50 fit
[6] = target: T4, CDK12_CycK (Homo sapiens, UniProt Q9NYV4); assay: Radiometric protein kinase assay (33PanQinase), CDK12_CycK; details: for Hill Slope: slope of the IC50 fit
T4 construct: purchased Reaction Biology

[7] = target: T5, CDK13_CycK (Homo sapiens, UniProt Q14004); assay: Radiometric protein kinase assay (33PanQinase), CDK13_CycK; details: for Hill Slope: slope of the IC50 fit
T5 construct: purchased Reaction Biology

[8] = target: CDK14_CycY (Homo sapiens, UniProt O94921); assay: Radiometric protein kinase assay (33PanQinase), CDK14_CycY; details: for Hill Slope: slope of the IC50 fit
[9] = target: T6, CDK15_CycA2 (Homo sapiens, UniProt Q96Q40); assay: Radiometric protein kinase assay (33PanQinase), CDK15_CycA2; details: for IC50: highest assay concentration 1.00E-05 M; for Hill Slope: slope of the IC50 fit
T6 construct: purchased Reaction Biology

[10] = target: T7, CDK16_CycY (Homo sapiens, UniProt Q00536); assay: Radiometric protein kinase assay (33PanQinase), CDK16_CycY; details: for Hill Slope: slope of the IC50 fit
T7 construct: purchased Reaction Biology

[11] = target: CDK17_p35NCK (Homo sapiens, UniProt Q00537); assay: Radiometric protein kinase assay (33PanQinase), CDK17_p35NCK; details: slope of the IC50 fit
[12] = target: CDK18_CycY (Homo sapiens, UniProt Q07002); assay: Radiometric protein kinase assay (33PanQinase), CDK18_CycY; details: for IC50: highest assay concentration 1.00E-05 M; for Hill Slope: slope of the IC50 fit
[13] = target: T8, CDK19_CycC (Homo sapiens, UniProt Q9BWU1); assay: Radiometric protein kinase assay (33PanQinase), CDK19_CycC; details: for Hill Slope: slope of the IC50 fit
T8 construct: purchased Reaction Biology

[14] = target: T9, CDK2_CycA2 (Homo sapiens, UniProt P24941); assay: Radiometric protein kinase assay (33PanQinase), CDK2_CycA2; details: for IC50: highest assay concentration 1.00E-05 M, read-out: IC50; for Hill Slope: slope of the IC50 fit
T9 construct: purchased Reaction Biology

[15] = target: T10, CDK2_CycD1 (Homo sapiens, UniProt P24941); assay: Radiometric protein kinase assay (33PanQinase), CDK2_CycD1; details: slope of the IC50 fit
T10 construct: purchased Reaction Biology

[16] = target: T11, CDK2_CycE1 (Homo sapiens, UniProt P24941); assay: Radiometric protein kinase assay (33PanQinase), CDK2_CycE1; details: for IC50: highest assay concentration 1.00E-05 M, read-out: IC50; for Hill Slope: slope of the IC50 fit
T11 construct: purchased Reaction Biology

[17] = target: CDK20_CycH (Homo sapiens, UniProt Q8IZL9); assay: Radiometric protein kinase assay (33PanQinase), CDK20_CycH; details: for IC50: highest assay concentration 1.00E-05 M; for Hill Slope: slope of the IC50 fit
[18] = target: CDK20_CycT1 (Homo sapiens, UniProt Q8IZL9); assay: Radiometric protein kinase assay (33PanQinase), CDK20_CycT1; details: for IC50: highest assay concentration 1.00E-05 M; for Hill Slope: slope of the IC50 fit
[19] = target: T12, CDK3_CycC (Homo sapiens, UniProt Q00526); assay: Radiometric protein kinase assay (33PanQinase), CDK3_CycC; details: for Hill Slope: slope of the IC50 fit
T12 construct: purchased Reaction Biology

[20] = target: T13, CDK3_CycE1 (Homo sapiens, UniProt Q00526); assay: Radiometric protein kinase assay (33PanQinase), CDK3_CycE1; details: for Hill Slope: slope of the IC50 fit
T13 construct: purchased Reaction Biology

[21] = target: T14, CDK4_CycD1 (Homo sapiens, UniProt P11802); assay: Radiometric protein kinase assay (33PanQinase), CDK4_CycD1; details: for Hill Slope: slope of the IC50 fit
T14 construct: purchased Reaction Biology

[22] = target: T15, CDK4_CycD2 (Homo sapiens, UniProt P11802); assay: Radiometric protein kinase assay (33PanQinase), CDK4_CycD2; details: for Hill Slope: slope of the IC50 fit
T15 construct: purchased Reaction Biology

[23] = target: T16, CDK4_CycD3 (Homo sapiens, UniProt P11802); assay: Radiometric protein kinase assay (33PanQinase), CDK4_CycD3; details: for Hill Slope: slope of the IC50 fit
T16 construct: purchased Reaction Biology

[24] = target: T17, CDK5_p25NCK (Homo sapiens, UniProt Q00535); assay: Radiometric protein kinase assay (33PanQinase), CDK5_p25NCK; details: for IC50: highest assay concentration 1.00E-05 M; for Hill Slope: slope of the IC50 fit
T17 construct: purchased Reaction Biology

[25] = target: T18, CDK5_p35NCK (Homo sapiens, UniProt Q00535); assay: Radiometric protein kinase assay (33PanQinase), CDK5_p35NCK; details: for IC50: highest assay concentration 1.00E-05 M; for Hill Slope: slope of the IC50 fit
T18 construct: purchased Reaction Biology

[26] = target: T19, CDK6_CycD1 (Homo sapiens, UniProt Q00534); assay: Radiometric protein kinase assay (33PanQinase), CDK6_CycD1; details: for Hill Slope: slope of the IC50 fit
T19 construct: purchased Reaction Biology

[27] = target: T20, CDK6_CycD2 (Homo sapiens, UniProt Q00534); assay: Radiometric protein kinase assay (33PanQinase), CDK6_CycD2; details: for Hill Slope: slope of the IC50 fit
T20 construct: purchased Reaction Biology

[28] = target: T21, CDK6_CycD3 (Homo sapiens, UniProt Q00534); assay: Radiometric protein kinase assay (33PanQinase), CDK6_CycD3; details: for Hill Slope: slope of the IC50 fit
T21 construct: purchased Reaction Biology

[29] = target: T22, CDK7_CycH_MAT1 (Homo sapiens, UniProt P50613); assay: Radiometric protein kinase assay (33PanQinase), CDK7_CycH_MAT1; details: for Hill Slope: slope of the IC50 fit
T22 construct: purchased Reaction Biology

[30] = target: T23, CDK8_CycC (Homo sapiens, UniProt P49336); assay: Radiometric protein kinase assay (33PanQinase), CDK8_CycC; details: for IC50: highest assay concentration 1.00E-05 M, read-out: IC50; for Hill Slope: slope of the IC50 fit
T23 construct: purchased Reaction Biology

[31] = target: T24, CDK9_CycK (Homo sapiens, UniProt P50750); assay: Radiometric protein kinase assay (33PanQinase), CDK9_CycK; details: for IC50: highest assay concentration 1.00E-05 M; for Hill Slope: slope of the IC50 fit
T24 construct: purchased Reaction Biology

[32] = target: T25, CDK9_CycT1 (Homo sapiens, UniProt P50750); assay: Radiometric protein kinase assay (33PanQinase), CDK9_CycT1; details: for IC50: highest assay concentration 1.00E-05 M; for Hill Slope: slope of the IC50 fit
T25 construct: purchased Reaction Biology

[33] = highest assay concentration 1.00E-05 M, read-out: IC50
[34] = highest assay concentration 1.00E-05 M

Chain of CDK10_CycQ (Q15131 whole entry): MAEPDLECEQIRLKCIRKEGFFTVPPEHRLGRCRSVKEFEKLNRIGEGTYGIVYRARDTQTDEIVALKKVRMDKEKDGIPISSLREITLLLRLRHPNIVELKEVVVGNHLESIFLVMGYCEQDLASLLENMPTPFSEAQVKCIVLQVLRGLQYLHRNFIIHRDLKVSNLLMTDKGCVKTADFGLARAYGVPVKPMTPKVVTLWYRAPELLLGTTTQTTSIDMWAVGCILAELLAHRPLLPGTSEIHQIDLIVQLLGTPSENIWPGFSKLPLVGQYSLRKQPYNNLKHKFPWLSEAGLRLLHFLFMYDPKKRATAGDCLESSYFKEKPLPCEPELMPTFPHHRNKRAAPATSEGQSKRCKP
Chain of CDK10_CycQ (Q8N1B3 whole entry partner): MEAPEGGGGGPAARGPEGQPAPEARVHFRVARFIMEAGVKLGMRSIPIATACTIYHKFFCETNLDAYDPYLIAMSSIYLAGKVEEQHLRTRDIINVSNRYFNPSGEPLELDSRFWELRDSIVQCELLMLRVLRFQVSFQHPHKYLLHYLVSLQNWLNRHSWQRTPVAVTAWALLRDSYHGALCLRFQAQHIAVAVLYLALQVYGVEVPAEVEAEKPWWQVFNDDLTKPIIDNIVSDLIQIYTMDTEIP
T24 sequence (P50750 whole entry): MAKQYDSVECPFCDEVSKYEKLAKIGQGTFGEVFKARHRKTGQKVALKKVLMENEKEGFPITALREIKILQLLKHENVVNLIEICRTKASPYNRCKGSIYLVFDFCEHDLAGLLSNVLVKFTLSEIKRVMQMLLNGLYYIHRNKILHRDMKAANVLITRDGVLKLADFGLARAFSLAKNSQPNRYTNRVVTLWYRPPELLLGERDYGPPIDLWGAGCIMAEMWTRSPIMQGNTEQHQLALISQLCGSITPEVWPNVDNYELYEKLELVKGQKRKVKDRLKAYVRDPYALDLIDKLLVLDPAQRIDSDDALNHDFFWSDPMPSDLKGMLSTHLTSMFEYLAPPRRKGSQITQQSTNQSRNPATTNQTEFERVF
T24 sequence (O75909 whole entry partner): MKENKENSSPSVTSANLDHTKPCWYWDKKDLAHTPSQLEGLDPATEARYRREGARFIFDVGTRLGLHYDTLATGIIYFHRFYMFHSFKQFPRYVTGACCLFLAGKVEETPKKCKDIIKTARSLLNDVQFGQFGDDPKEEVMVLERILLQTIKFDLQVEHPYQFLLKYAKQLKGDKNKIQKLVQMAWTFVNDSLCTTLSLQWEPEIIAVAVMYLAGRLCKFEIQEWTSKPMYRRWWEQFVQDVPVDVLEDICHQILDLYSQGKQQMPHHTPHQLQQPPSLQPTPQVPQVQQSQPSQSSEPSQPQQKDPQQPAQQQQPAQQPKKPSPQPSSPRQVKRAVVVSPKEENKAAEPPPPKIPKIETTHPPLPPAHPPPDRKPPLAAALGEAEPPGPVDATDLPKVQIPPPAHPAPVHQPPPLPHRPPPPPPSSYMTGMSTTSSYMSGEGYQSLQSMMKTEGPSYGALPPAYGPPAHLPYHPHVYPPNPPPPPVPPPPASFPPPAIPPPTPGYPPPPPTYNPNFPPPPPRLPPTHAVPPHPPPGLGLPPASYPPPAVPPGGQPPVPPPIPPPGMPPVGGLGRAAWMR
T25 sequence (P50750 whole entry): as the sequence (P50750 whole entry) above
T25 sequence (O60563 whole entry partner): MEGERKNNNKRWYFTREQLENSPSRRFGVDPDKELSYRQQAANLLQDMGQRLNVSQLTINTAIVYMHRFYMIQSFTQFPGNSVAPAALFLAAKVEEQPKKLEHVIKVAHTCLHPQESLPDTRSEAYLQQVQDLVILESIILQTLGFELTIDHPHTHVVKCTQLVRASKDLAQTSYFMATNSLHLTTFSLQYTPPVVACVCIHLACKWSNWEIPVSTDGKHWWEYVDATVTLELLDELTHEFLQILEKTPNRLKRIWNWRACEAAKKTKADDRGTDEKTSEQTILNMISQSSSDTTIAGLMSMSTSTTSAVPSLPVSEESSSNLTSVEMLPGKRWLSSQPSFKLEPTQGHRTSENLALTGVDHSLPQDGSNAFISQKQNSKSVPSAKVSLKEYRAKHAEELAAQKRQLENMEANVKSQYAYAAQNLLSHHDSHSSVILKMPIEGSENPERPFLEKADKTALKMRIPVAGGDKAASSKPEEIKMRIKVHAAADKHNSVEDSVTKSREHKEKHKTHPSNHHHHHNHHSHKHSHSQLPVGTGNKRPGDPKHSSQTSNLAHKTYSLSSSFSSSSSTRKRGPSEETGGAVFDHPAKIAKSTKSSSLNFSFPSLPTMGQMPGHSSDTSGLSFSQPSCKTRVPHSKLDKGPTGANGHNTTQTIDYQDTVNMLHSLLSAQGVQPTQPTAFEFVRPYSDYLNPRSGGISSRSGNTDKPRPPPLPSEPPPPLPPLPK
T18 sequence (Q00535 whole entry): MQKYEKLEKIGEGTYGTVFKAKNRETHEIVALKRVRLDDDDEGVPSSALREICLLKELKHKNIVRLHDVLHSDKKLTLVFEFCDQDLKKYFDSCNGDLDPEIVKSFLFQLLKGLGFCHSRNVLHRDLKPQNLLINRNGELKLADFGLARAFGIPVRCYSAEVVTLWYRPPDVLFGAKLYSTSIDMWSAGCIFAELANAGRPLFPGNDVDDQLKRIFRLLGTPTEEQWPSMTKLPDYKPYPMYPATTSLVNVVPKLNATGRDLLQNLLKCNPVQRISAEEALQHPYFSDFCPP
T18 sequence (Q15078 whole entry partner): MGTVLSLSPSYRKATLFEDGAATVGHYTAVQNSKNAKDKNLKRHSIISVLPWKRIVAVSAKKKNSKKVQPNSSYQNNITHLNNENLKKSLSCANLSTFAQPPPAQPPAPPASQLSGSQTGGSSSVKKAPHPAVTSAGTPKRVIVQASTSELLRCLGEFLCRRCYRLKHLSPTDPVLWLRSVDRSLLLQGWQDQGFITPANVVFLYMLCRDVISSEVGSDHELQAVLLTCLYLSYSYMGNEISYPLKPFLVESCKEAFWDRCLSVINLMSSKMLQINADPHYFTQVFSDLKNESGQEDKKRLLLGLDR
T17 sequence (Q00535 whole entry): as the sequence (Q00535 whole entry) above
T17 sequence (Q15078 99-307 partner limits assumed): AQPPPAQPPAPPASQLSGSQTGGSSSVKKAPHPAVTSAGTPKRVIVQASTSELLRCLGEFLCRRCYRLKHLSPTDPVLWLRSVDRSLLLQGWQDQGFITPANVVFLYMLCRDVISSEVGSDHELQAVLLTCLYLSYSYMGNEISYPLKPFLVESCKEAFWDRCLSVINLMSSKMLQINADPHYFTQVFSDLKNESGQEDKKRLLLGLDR
T6 sequence (Q96Q40 whole entry): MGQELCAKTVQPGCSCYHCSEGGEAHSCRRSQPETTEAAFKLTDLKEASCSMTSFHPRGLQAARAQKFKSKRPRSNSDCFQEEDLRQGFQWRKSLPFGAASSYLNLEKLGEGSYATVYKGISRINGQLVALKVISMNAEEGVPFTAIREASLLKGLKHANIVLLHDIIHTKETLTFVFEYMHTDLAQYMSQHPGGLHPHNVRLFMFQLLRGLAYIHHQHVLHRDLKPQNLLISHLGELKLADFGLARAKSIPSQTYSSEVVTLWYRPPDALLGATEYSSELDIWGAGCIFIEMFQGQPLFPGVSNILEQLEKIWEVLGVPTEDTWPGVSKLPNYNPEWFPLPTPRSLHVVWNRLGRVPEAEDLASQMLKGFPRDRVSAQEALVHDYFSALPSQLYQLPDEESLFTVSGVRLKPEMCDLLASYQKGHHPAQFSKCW
T8 sequence (Q9BWU1 whole entry): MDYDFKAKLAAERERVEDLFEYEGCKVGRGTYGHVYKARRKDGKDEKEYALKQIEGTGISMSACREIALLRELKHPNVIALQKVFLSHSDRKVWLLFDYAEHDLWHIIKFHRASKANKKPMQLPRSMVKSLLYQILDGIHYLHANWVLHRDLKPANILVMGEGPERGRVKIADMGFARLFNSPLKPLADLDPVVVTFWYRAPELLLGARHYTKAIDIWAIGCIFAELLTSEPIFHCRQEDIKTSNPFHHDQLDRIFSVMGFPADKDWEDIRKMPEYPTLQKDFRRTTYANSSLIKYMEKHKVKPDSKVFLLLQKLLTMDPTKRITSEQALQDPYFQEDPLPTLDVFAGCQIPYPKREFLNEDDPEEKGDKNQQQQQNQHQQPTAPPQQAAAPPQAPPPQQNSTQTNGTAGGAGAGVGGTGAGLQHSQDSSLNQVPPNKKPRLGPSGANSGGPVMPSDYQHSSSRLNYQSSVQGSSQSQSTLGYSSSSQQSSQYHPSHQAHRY
T8 sequence (P24863 whole entry partner): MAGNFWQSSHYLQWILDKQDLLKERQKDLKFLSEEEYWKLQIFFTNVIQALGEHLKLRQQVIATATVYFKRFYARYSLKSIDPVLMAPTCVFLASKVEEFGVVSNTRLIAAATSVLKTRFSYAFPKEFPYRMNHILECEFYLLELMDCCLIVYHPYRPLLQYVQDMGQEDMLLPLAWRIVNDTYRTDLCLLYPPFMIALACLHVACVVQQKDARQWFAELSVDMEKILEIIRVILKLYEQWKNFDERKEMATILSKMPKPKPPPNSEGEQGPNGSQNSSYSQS

Cc1c(Br)c(Br)c2c3c1nc(N1CCNCC1)n3CCC2.Cl [SEL120-34A, reference compound]
IC50 [1, 33]: 7.1 µM | Hill Slope [1]: -0.95 | IC50 [2, 34]: 7.62 µM | Hill Slope [2]: -0.55 | IC50 [3]: 5 µM | Hill Slope [3]: -1.01 | Hill Slope [4]: -0.83 | Hill Slope [5]: -0.45 | IC50 [6, 34]: 0.702 µM | Hill Slope [6]: -0.91 | IC50 [7, 33]: 0.292 µM | Hill Slope [7]: -0.51 | Hill Slope [8]: -0.83 | IC50 [9]: 7.49 µM | Hill Slope [9]: -0.86 | Hill Slope [10]: -0.52 | Hill Slope [11]: -0.56 | IC50 [12]: 7.84 µM | Hill Slope [12]: -0.81 | IC50 [13, 33]: 0.437 µM | Hill Slope [13]: -0.83 | IC50 [14]: 2.22 µM | Hill Slope [14]: -1.14 | Hill Slope [15]: -0.7 | IC50 [16]: 2.7 µM | Hill Slope [16]: -1.13 | IC50 [17]: 1.13 µM | Hill Slope [17]: -0.52 | IC50 [18]: 1.12 µM | Hill Slope [18]: -0.7 | IC50 [19, 33]: 4.82 µM | Hill Slope [19]: -0.87 | Hill Slope [20]: -0.48 | Hill Slope [21]: -0.69 | Hill Slope [22]: -0.75 | Hill Slope [23]: -0.78 | IC50 [24]: 7.39 µM | Hill Slope [24]: -0.75 | IC50 [25]: 4.55 µM | Hill Slope [25]: -0.92 | Hill Slope [26]: -0.06 | Hill Slope [27]: -0.78 | Hill Slope [28]: -0.38 | Hill Slope [29]: -0.9 | IC50 [30]: 0.193 µM | Hill Slope [30]: -0.81 | IC50 [31]: 0.597 µM | Hill Slope [31]: -1.14 | IC50 [32]: 0.957 µM | Hill Slope [32]: -1.23

CN1CCN(C(=O)c2ccc3cc(CCNc4ncnc5ccc(C#N)cc45)ccc3c2)CC1 [Senexin B, reference compound]
Hill Slope [1]: -0.17 | Hill Slope [2]: -0.12 | IC50 [3]: > 10 µM | Hill Slope [3]: -0.4 | IC50 [4, 34]: > 10 µM | Hill Slope [4]: -0.47 | IC50 [5, 34]: > 10 µM | Hill Slope [5]: -0.19 | Hill Slope [6]: -0.18 | Hill Slope [7]: -0.12 | IC50 [8, 34]: > 10 µM | Hill Slope [8]: -0.57 | IC50 [9]: > 10 µM | Hill Slope [9]: -0.78 | IC50 [10, 34]: > 10 µM | Hill Slope [10]: -0.95 | Hill Slope [11]: -0.16 | IC50 [12]: > 10 µM | Hill Slope [12]: -0.39 | Hill Slope [13]: -0.53 | IC50 [14]: > 10 µM | Hill Slope [14]: -0.76 | Hill Slope [15]: -0.18 | IC50 [16]: > 10 µM | Hill Slope [16]: -0.46 | IC50 [17]: > 10 µM | Hill Slope [17]: -0.32 | IC50 [18]: > 10 µM | Hill Slope [18]: -0.45 | Hill Slope [19]: -0.01 | IC50 [20, 33]: > 10 µM | Hill Slope [20]: -0.36 | IC50 [21, 34]: > 10 µM | Hill Slope [21]: -0.51 | IC50 [22, 34]: > 10 µM | Hill Slope [22]: -0.64 | IC50 [23, 34]: > 10 µM | Hill Slope [23]: -0.51 | IC50 [24]: > 10 µM | Hill Slope [24]: -0.24 | IC50 [25]: > 10 µM | Hill Slope [25]: -0.43 | IC50 [26, 34]: > 10 µM | Hill Slope [26]: -0.17 | IC50 [27, 34]: > 10 µM | Hill Slope [27]: -0.36 | IC50 [28, 34]: > 10 µM | Hill Slope [28]: -0.32 | IC50 [29, 34]: > 10 µM | Hill Slope [29]: -0.55 | IC50 [30]: 0.165 µM | Hill Slope [30]: -0.56 | IC50 [31]: 5.16 µM | Hill Slope [31]: -0.6 | IC50 [32]: 9.43 µM | Hill Slope [32]: -0.82
